Columns and labels:
[1] = target: T1, catalytic domain (JH1) of human JAK2 (Homo sapiens, UniProt O60674); assay: JAK2 LanthaScreen JH1 Binding Assay; settings: 50 nM JAK2-JH1 tracer, 2 hours at 25° C., read-out: JH1 Bind IC50
T1 construct: catalytic domain (JH1, amino acids 826-1132) of human JAK2; FLAG (N); purchased Carna Biosciences 08-445-20N; host or cells: baculovirus expression system
Method: JAK2 JH1 binding assay utilizes catalytic domain (JH1, amino acids 826-1132) of human JAK2 expressed as N-terminal FLAG-tagged, biotinylated protein in a baculovirus expression system (Carna Biosciences, Product #08-445-20N). The assay was conducted in black 384-well polystyrene plates in a final reaction volume of 20 μL. JAK2 JH1 (1.5 nM) was incubated with compounds (100 nL serially diluted in DMSO) in the presence of 50 nM fluorescent JAK2-JH1 tracer and 0.5 nM Streptavidin-Tb cryptate (Cisbio Part #610SATLB) in assay buffer (50 mM Tris, pH=7.5, 10 mM MgCl2, 0.01% Brij-35, 0.1% BSA, 1 mM EGTA, 5% Glycerol and 5 mM DTT). Non-specific binding was accessed in the presence of 2 mM ATP. After incubation for 2 hours at 25° C., LanthaScreen signals were read on a PHERAstar FS plate reader (BMG LABTECH). Data was analyzed with IDBS XLfit and GraphPad Prism 5.0 software using a four parameter dose response curve to determine IC50 for each compound.

[2] = system: Phospho-STAT5 (Tyr694) in SET-2 cells; assay: STAT5 (Tyr694) Phosphorylation Cell Based Assay; settings: Homo sapiens, pSTAT5 (Tyr694) HTRF, 2 hours, RPMI with 10% FBS, read-out: SET2 IC50
Method: SET-2 cells was purchased from DSMZ (Germany). RPMI1640 medium, Fetal Bovine Serum and 384-white sold flat-bottom small volume plate were purchased from Thermo Fisher Scientific (Waltham, MA). Phospho-STAT5 (Tyr694) HTRF kit was purchased from Perkin Elmer (Waltham, MA).
SET-2 cells were cultured in RPMI media with 20% FBS at 37° C. in humidified incubator supplied with 5% CO2. On the day of assay, the cells were centrifuged to remove the culture media and resuspended with prewarmed RPMI with 10% FBS.
Testing compounds were prepared by serial dilution in DMSO and 50 nL/well test compounds were transferred to the 384 white low volume cell culture plate (Greiner Bio-one) by ECHO liquid handler (Labcyte). The cells were then dispensed with Multidrop (Thermo Fisher, Waltham, MA) at 10 μL/well (7×10^6 cells/mL) with 0.5% DMSO in the final assay. After the treated cells were incubated for 2 hours at 37° C./5% CO2 incubator, 4 μL/well supplemented lysis buffer (100X blocking buffer diluted 25 fold in 4X lysis buffer, Perkin Elmer) were added and incubated at room temperature for 90 min on orbital shaker at 600 rpm. Phospho-STAT5 Cryptate antibody and Phospho-STAT5 d2 antibody (1:1 vol/vol) were premixed and diluted 20 fold with in the detection buffer (Perkin Elmer). 4 μL of the premixed antibody solution were added to each well followed with 24 hours incubation at room temperature on orbital shaker at 600 rpm. The product activity was determined by measuring the fluorescence at 620 nm and 665 nm on Pherastar microplate reader (BMG Labtech). A ratio is calculated (665/620) for each well. Wells with DMSO only served as the positive controls and wells containing high concentration of control compound were used as negative controls. IC50 determination was performed by fitting the curve of percent control activity versus the log of the compound concentration using the GraphPad Prism 7.0 software.

[3] = In Vivo Pharmacokinetics, rat oral dosing; set-up: species or system Sprague Dawley rats; settings: male, Sprague Dawley, oral gavage 3.0 mg/kg, plasma, cassette dosing
Method: Test compounds were administered to male Sprague Dawley rats or male and female Cynomolgus monkeys intravenously or via oral gavage. For intravenous (IV) dosing, test compounds were dosed at 1 mg/kg using a formulation of 10% dimethylacetamide (DMAC), 10% propylene glycol (PG) in acidified saline via IV bolus for rat or 10 min IV infusion for monkey. For oral (PO) dosing, test compounds were dosed at 3.0 mg/kg using 5% DMAC in 0.5% methylcellulose in citrate buffer (pH -2.5). Blood samples were collected at predose and various time points up to 24 hours postdose. All blood samples were collected using EDTA as the anticoagulant and centrifuged to obtain plasma samples. The plasma concentrations of test compounds were determined by LC-MS/MS methods. The measured plasma concentrations were used to calculate PK parameters by standard noncompartmental methods using Phoenix© WinNonlin software program (version 8.0, Pharsight Corporation) or similar software. In rats and monkeys, cassette dosing of test compounds were conducted to obtain preliminary PK parameters. In vivo pharmacokinetic experiments with male beagle dogs may be performed under the conditions described above.

T1 sequence (O60674 826-1132): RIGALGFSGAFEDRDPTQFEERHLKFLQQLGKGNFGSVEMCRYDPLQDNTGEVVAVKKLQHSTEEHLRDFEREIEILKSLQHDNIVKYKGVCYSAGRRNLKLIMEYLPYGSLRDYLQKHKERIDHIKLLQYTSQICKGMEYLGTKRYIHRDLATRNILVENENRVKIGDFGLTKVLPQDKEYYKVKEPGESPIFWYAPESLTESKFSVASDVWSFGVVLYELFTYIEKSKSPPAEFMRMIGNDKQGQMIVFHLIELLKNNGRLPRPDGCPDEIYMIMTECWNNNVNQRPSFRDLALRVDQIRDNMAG

Row | SMILES | IC50 [1] [nM] | IC50 [2] [nM] | AUC [3] [µM·h]
1 | [2H]C([2H])([2H])n1ncc2cc(-c3c(-c4cn(CC)nc4F)[nH]c4ncc5c(c34)n([C@H]3CC[C@@](C)(NC(=O)C4CC4)CC3)c(=O)n5C)ccc21 [Example 5, N-((1s,4s)-4-(7-(1-Ethyl-3-fluoro-1H-pyrazol-4-yl)-3-methyl-8-(1-(methyl-d3)-1H-indazol-5-yl)-2-oxo-3,6-dihydroimidazo[4,5-d]pyrrolo[2,3-b]pyridin-1(2H)-yl)-1-methylcyclohexyl)cyclopropanecarboxamide] | > 1000 | ≤ 300 | > 1.5
2 | [2H]C([2H])([2H])n1cc(-c2[nH]c3ncc4c(c3c2-c2ccc3c(cnn3C([2H])([2H])[2H])c2)n([C@H]2CC[C@@](C)(NC(=O)C3CC3)CC2)c(=O)n4C)c(F)n1 [Example 4, N-((1s,4s)-4-(7-(3-fluoro-1-(methyl-d3)-1H-pyrazol-4-yl)-3-methyl-8-(1-(methyl-d3)-1H-indazol-5-yl)-2-oxo-3,6-dihydroimidazo[4,5-d]pyrrolo[2,3-b]pyridin-1(2H)-yl)-1-methylcyclohexyl)cyclopropanecarboxamide] | > 1000 | ≤ 300 | ≤ 0.5
3 | [2H]C([2H])([2H])n1cc(-c2[nH]c3ncc4c(c3c2-c2ccc(OC)cc2)n([C@H]2CC[C@@](C)(NC(=O)C3CC3)CC2)c(=O)n4C)c(F)n1 [Example 3, N-((1s,4s)-4-(7-(3-fluoro-1-(methyl-d3)-1H-pyrazol-4-yl)-8-(4-methoxyphenyl)-3-methyl-2-oxo-3,6-dihydroimidazo[4,5-d]pyrrolo[2,3-b]pyridin-1(2H)-yl)-1-methylcyclohexyl)cyclopropanecarboxamide] | > 1000 | ≤ 300 | > 1.5
4 | [2H]C([2H])([2H])n1ncc2cc(-c3c(-c4cn(C)nc4OC)[nH]c4ncc5c(c34)n([C@H]3CC[C@@](C)(NC(=O)C4CC4)CC3)c(=O)n5C)ccc21 [Example 2, N-((1s,4s)-4-(7-(3-Methoxy-1-methyl-1H-pyrazol-4-yl)-3-methyl-8-(1-(methyl-d3)-1H-indazol-5-yl)-2-oxo-3,6-dihydroimidazo[4,5-d]pyrrolo[2,3-b]pyridin-1(2H)-yl)-1-methylcyclohexyl)cyclopropanecarboxamide] | > 1000 | ≤ 300 | 0.5 to 1.5
5 | COc1ccc(-c2c(-c3cn(C)nc3OC)[nH]c3ncc4c(c23)n([C@H]2CC[C@@](C)(NC(=O)C3CC3)CC2)c(=O)n4C)cc1 [Example 1, N-((1s,4s)-4-(7-(3-Methoxy-1-methyl-1H-pyrazol-4-yl)-8-(4-methoxyphenyl)-3-methyl-2-oxo-3,6-dihydroimidazo[4,5-d]pyrrolo[2,3-b]pyridin-1(2H)-yl)-1-methylcyclohexyl)cyclopropanecarboxamide] | > 1000 | ≤ 300 | > 1.5
6 | [2H]C([2H])([2H])n1cc(-c2[nH]c3ncc4c(c3c2-c2ccc(OC)cc2)n([C@H]2CC[C@@](C)(NC(=O)[C@H]3C[C@H]3F)CC2)c(=O)n4C([2H])([2H])[2H])c(F)n1 [Example 6, (1R,2R)-2-Fluoro-N-((1s,4S)-4-(7-(3-fluoro-1-(methyl-d3)-1H-pyrazol-4-yl)-8-(4-methoxyphenyl)-3-(methyl-d3)-2-oxo-3,6-dihydroimidazo[4,5-d]pyrrolo[2,3-b]pyridin-1(2H)-yl)-1-methylcyclohexyl)cyclopropane-1-carboxamide] | > 1000 | ≤ 300 | > 1.5

Source: patent US20240190876A1, “Tricyclic Urea Compounds As JAK2 V617F Inhibitors” (Incyte Corporation, priority 2022, published 2024)
